# Laboratory results from patent US9708318B2, “Bicyclic heterocycles as FGFR4 inhibitors” (Incyte Corporation, priority 2015, dated 2017).
# Like-named read-outs stand apart in the source and are kept apart here.
# How the values were obtained:
# [1] = molecular target: FGFR3 enzyme (Homo sapiens (Human), UniProt P22607); assay: FGFR Enzymatic Assay (FRET peptide phosphorylation), FGFR3; assay type: biochemical; settings: for IC50: read-out: FGFR3 IC50; for FGFR1/FGFR3 IC50 ratio / FGFR4/FGFR3 IC50 ratio: FGFR3 selectivity
# Procedure: (§1) The inhibitor potency of the exemplified compounds was measured in an enzyme assay that measures peptide phosphorylation using FRET measurements to detect product formation. Inhibitors were serially diluted in DMSO and a volume of 0.5 μL was transferred to the wells of a 384-well plate.
# (§2) GraphPad prism3 was used to analyze the data.
# [2] = molecular target: FGFR1 (Homo sapiens (Human), UniProt P11362); assay: FGFR Enzymatic Assay (FRET peptide phosphorylation), FGFR1
# [3] = molecular target: FGFR2 (Homo sapiens (Human), UniProt P21802); assay: FGFR Enzymatic Assay (FRET peptide phosphorylation), FGFR2; assay type: biochemical
# Procedure: as §1
# (§3) The enzymes were purchased from Millipore or Invitrogen.
# as §2
# [4] = molecular target: FGFR4 (Homo sapiens (Human), UniProt P22455); assay: FGFR Enzymatic Assay (FRET peptide phosphorylation), FGFR4; assay type: biochemical; settings: for FGFR1/FGFR4 IC50 ratio / FGFR2/FGFR4 IC50 ratio / FGFR3/FGFR4 IC50 ratio: FGFR4 selectivity
# Procedure: as §1, §3, §2
# [5] = pre-incubated for 5 to 10 minutes
# [6] = read-out: FGFR1 IC50, pre-incubated for 5 to 10 minutes
# [7] = read-out: FGFR1 IC50, pre-incubated for 4 hours
# [8] = FGFR1 IC50 (nM), pre-incubated for 4 hours
# FGFR4, sequence (P22455 22-802): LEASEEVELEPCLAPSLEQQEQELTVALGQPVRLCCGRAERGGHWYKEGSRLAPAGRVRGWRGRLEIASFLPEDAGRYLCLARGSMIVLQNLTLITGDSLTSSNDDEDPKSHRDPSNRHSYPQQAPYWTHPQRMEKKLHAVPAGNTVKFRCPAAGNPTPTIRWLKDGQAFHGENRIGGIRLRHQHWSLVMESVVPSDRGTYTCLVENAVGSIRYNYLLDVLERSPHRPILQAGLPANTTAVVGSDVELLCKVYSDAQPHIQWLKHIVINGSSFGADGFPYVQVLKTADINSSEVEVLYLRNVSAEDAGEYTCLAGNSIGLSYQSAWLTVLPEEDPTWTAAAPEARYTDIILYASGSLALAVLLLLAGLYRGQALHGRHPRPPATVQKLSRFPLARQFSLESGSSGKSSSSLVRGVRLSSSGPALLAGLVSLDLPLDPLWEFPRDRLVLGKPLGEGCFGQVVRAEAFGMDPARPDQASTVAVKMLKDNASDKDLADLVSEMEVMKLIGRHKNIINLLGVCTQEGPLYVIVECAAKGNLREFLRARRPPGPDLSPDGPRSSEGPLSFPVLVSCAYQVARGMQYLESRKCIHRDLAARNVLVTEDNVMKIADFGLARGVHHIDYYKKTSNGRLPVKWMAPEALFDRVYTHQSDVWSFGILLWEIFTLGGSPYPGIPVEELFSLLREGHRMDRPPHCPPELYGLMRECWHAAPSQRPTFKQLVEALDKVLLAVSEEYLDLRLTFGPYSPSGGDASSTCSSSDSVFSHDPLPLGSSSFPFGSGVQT
# FGFR1, sequence (P11362 22-822): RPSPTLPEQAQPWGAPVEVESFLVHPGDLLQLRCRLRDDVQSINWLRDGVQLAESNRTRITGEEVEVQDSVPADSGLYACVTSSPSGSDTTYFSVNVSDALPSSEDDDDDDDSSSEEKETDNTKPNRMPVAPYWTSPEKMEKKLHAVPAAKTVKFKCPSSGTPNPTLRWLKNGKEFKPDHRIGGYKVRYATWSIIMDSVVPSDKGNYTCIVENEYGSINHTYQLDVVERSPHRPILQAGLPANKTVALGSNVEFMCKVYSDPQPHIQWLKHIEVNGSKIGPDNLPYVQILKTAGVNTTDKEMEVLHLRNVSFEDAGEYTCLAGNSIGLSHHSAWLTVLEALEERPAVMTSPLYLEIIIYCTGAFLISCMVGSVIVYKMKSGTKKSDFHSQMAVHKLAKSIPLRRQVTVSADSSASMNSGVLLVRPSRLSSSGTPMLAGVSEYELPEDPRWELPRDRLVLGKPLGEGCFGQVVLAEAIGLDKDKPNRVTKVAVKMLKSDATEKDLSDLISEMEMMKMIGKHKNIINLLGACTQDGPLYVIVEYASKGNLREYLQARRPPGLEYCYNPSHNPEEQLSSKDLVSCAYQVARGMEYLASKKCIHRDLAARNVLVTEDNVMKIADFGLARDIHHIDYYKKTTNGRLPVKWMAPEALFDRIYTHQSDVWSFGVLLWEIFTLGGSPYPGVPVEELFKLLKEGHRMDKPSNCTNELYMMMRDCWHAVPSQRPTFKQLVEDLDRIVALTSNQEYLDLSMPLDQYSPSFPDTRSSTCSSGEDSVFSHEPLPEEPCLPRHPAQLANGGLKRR
# FGFR2, sequence (P21802 22-821): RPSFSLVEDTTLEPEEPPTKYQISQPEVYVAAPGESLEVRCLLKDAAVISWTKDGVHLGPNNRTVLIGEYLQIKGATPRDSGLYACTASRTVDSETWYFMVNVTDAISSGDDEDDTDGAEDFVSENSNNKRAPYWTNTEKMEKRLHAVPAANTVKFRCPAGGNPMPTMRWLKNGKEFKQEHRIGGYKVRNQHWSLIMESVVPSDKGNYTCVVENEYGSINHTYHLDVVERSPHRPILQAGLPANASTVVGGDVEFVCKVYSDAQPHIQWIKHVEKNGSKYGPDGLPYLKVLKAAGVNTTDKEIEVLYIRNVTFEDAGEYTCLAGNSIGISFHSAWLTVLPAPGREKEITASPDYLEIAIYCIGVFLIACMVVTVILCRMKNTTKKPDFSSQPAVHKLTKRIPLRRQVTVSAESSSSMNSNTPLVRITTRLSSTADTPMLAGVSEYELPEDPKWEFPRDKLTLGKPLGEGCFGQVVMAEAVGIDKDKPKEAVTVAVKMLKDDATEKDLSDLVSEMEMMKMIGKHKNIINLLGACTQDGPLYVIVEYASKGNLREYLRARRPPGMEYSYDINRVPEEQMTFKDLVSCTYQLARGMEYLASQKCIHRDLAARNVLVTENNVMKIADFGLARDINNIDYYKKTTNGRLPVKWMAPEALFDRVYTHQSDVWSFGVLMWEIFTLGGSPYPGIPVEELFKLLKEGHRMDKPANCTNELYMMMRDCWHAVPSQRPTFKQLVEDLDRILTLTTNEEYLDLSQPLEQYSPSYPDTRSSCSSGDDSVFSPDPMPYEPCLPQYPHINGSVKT
# FGFR3 enzyme, sequence (P22607 23-806): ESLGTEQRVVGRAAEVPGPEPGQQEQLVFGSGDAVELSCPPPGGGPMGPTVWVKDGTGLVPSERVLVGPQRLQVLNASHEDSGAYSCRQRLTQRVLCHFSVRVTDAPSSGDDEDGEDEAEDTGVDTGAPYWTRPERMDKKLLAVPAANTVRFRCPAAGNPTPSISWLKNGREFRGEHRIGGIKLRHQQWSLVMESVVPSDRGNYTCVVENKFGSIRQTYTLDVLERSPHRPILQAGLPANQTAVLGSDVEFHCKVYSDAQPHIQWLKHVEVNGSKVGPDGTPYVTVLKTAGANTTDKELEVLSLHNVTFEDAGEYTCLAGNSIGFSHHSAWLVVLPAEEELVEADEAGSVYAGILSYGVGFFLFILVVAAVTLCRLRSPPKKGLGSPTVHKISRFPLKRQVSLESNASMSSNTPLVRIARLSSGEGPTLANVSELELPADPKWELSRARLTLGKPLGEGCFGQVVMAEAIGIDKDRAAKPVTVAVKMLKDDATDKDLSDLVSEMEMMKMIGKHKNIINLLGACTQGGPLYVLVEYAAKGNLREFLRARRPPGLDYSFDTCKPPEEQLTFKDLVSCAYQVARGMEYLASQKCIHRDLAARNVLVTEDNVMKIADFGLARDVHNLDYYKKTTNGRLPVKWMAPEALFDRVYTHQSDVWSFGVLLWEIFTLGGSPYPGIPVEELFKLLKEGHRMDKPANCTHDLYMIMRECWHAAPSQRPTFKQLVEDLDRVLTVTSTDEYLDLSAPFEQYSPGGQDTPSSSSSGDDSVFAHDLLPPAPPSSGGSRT
SMILES,"IC50 [1, 5]",IC50 ([1]; pre-incubated for 4 hours),"IC50 [2, 6]","IC50 [2, 7]","IC50 [3, 5]",IC50 ([3]; pre-incubated for 4 hours),"FGFR1/FGFR4 IC50 ratio [4, 5]","FGFR2/FGFR4 IC50 ratio [4, 5]","FGFR3/FGFR4 IC50 ratio [4, 5]",FGFR1/FGFR4 IC50 ratio ([4]; pre-incubated for 4 hours),FGFR2/FGFR4 IC50 ratio ([4]; pre-incubated for 4 hours),FGFR3/FGFR4 IC50 ratio ([4]; pre-incubated for 4 hours),"IC50 [4, 5]",IC50 ([4]; pre-incubated for 4 hours),FGFR1/FGFR3 IC50 ratio ([1]; pre-incubated for 4 hours),FGFR4/FGFR3 IC50 ratio ([1]; pre-incubated for 4 hours),"IC50 [2, 8]","IC50 ([2]; FGFR1 IC50 (nM), pre-incubated for 5 to 10 minutes)"
"COc1cc(OC)c(F)c(N2Cc3cnc(-c4cn(C)nc4C)cc3N(c3ccc(F)c(C#N)c3)C2=O)c1F [Example 66, 5-(3-(2,6-difluoro-3,5-dimethoxyphenyl)-7-(1,3-dimethyl-1H-pyrazol-4-yl)-2-oxo-3,4-dihydropyrido[4,3-d]pyrimidin-1(2H)-yl)-2-fluorobenzonitrile]",,10 to 30 nM,,> 200 nM,,30 to 200 nM,,,,,,,,30 to 200 nM,>5,>5,,
"COc1cc(OC)c(F)c(N2Cc3cnc(-c4cn(C)nc4C)cc3N(c3ccc(-c4nnc(C)o4)cc3)C2=O)c1F [Example 115, 3-(2,6-difluoro-3,5-dimethoxyphenyl)-7-(1,3-dimethyl-1H-pyrazol-4-yl)-1-(4-(5-methyl-1,3,4-oxadiazol-2-yl)phenyl)-3,4-dihydropyrido[4,3-d]pyrimidin-2(1H)-one]",,< 10 nM,,,,< 10 nM,,,,,,,,30 to 200 nM,>3,>5,30 to 200 nM,
"CCN1C(=O)N(c2c(F)c(OC)cc(OC)c2F)Cc2cnc(-c3ccccc3)cc21 [Example 22, 3-(2,6-difluoro-3,5-dimethoxyphenyl)-1-ethyl-7-phenyl-3,4-dihydropyrido[4,3-d]pyrimidin-2(1H)-one]",,10 to 30 nM,,,,10 to 30 nM,,,,,,,,10 to 30 nM,>5,,30 to 200 nM,
"CNS(=O)(=O)c1cccc(N2C(=O)N(c3c(F)c(OC)cc(OC)c3F)Cc3cnc(-c4cn(C)nc4C)cc32)c1 [Example 111, 3-(3-(2,6-difluoro-3,5-dimethoxyphenyl)-7-(1,3-dimethy-1H-pyrazol-4-yl)-2-oxo-3,4-dihydropyrido[4,3-d]pyrimidin-1(2H)-yl)-N-methylbenzenesulfonamide]",,< 10 nM,,,,< 10 nM,,,,,,,,30 to 200 nM,>3,>5,10 to 30 nM,
"COc1cc(OC)c(F)c(N2Cc3cnc(-c4cn(C)nc4C)cc3N(C[C@H]3CCOC3)C2=O)c1F [Example 108, (R)-3-(2,6-difluoro-3,5-dimethoxyphenyl)-7-(1,3-dimethyl-1H-pyrazol-4-yl)-1-((tetrahydrofuran-3-yl)methyl)-3,4-dihydropyrido[4,3-d]pyrimidin-2(1H)-one]",,10 to 30 nM,,,,10 to 30 nM,,,,,,,,30 to 200 nM,>3,>3,30 to 200 nM,
"COc1cc(OC)c(F)c(N2Cc3cnc(-c4cn(C)nc4C)cc3N(Cc3ccc(F)c(F)c3)C2=O)c1F [Example 73, 3-(2,6-difluoro-3,5-dimethoxyphenyl)-1-(3,4-difluorobenzyl)-7-(1,3-dimethyl-1H-pyrazol-4-yl)-3,4-dihydropyrido[4,3-d]pyrimidin-2(1H)-one]",,10 to 30 nM,,,,10 to 30 nM,,,,,,,,30 to 200 nM,>5,>10,30 to 200 nM,
"COc1cccc(N2C(=O)N(c3c(F)c(OC)cc(OC)c3F)Cc3cnc(-c4cn(C)nc4C)cc32)c1 [Example 109, 3-(2,6-difluoro-3,5-dimethoxyphenyl)-7-(1,3-dimethyl-1H-pyrazol-4-yl)-1-(3-methoxyphenyl)-3,4-dihydropyrido[4,3-d]pyrimidin-2(1H)-one]",,< 10 nM,,,,< 10 nM,,,,,,,,30 to 200 nM,>3,>10,10 to 30 nM,
"COc1cc(OC)c(F)c(N2Cc3cnc(-c4cn(C)nc4C)cc3N(Cc3cnn(C)c3)C2=O)c1F [Example 72, 3-(2,6-difluoro-3,5-dimethoxyphenyl)-7-(1,3-dimethyl-1H-pyrazol-4-yl)-1-((1-methyl-1H-pyrazol-4-yl)methyl)-3,4-dihydropyrido[4,3-d]pyrimidin-2(1H)-one]",,< 10 nM,,< 10 nM,,< 10 nM,,,,,,,,< 10 nM,>5,>10,,
"COc1cc(OC)c(F)c(N2Cc3cnc(-c4ccc(C5(C#N)CCC5)nc4)cc3N(c3cnn(C)c3)C2=O)c1F [Example 188, 1-{5-[3-(2,6-difluoro-3,5-dimethoxyphenyl)-1-(1-methyl-1H-pyrazol-4-yl)-2-oxo-1,2,3,4-tetrahydropyrido[4,3-d]pyrimidin-7-yl]pyridin-2-yl}cyclobutanecarbonitrile]",,10 to 30 nM,,,,10 to 30 nM,,,,,,,,30 to 200 nM,>5,>5,30 to 200 nM,

# Now from value to compound:
"IC50 [1, 5]",IC50 ([1]; pre-incubated for 4 hours),"IC50 [2, 6]","IC50 [2, 7]","IC50 [3, 5]",IC50 ([3]; pre-incubated for 4 hours),"FGFR1/FGFR4 IC50 ratio [4, 5]","FGFR2/FGFR4 IC50 ratio [4, 5]","FGFR3/FGFR4 IC50 ratio [4, 5]",FGFR1/FGFR4 IC50 ratio ([4]; pre-incubated for 4 hours),FGFR2/FGFR4 IC50 ratio ([4]; pre-incubated for 4 hours),FGFR3/FGFR4 IC50 ratio ([4]; pre-incubated for 4 hours),"IC50 [4, 5]",IC50 ([4]; pre-incubated for 4 hours),FGFR1/FGFR3 IC50 ratio ([1]; pre-incubated for 4 hours),FGFR4/FGFR3 IC50 ratio ([1]; pre-incubated for 4 hours),"IC50 [2, 8]","IC50 ([2]; FGFR1 IC50 (nM), pre-incubated for 5 to 10 minutes)",SMILES
> 200 nM,> 200 nM,> 200 nM,> 200 nM,> 200 nM,> 200 nM,>25,>25,>25,>25,>25,>10,10 to 30 nM,10 to 30 nM,,,,,"COc1cc(OC)c(F)c(N2Cc3cnc(-c4cc(N)ccc4C#N)cc3C3(CC3)C2=O)c1F [Example 3, 4-amino-2-(2′-(2,6-difluoro-3,5-dimethoxyphenyl)-3′-oxo-2′,3′-dihydro-1′H-spiro[cyclopropane-1,4′-[2,7]naphthyridine]-6′-yl)benzonitrile]"
,< 10 nM,,,,< 10 nM,,,,,,,,30 to 200 nM,>5,>10,30 to 200 nM,,"CCN1C(=O)N(c2c(F)c(OC)cc(OC)c2F)Cc2cnc(-c3ccc(C4(C#N)CCC4)cc3)cc21 [Example 181, 1-(4-(3-(2,6-difluoro-3,5-dimethoxyphenyl)-1-ethyl-2-oxo-1,2,3,4-tetrahydropyrido[4,3-d]pyrimidin-7-yl)phenyl)cyclobutanecarbonitrile]"
30 to 200 nM,30 to 200 nM,> 200 nM,> 200 nM,> 200 nM,> 200 nM,>100,>100,>50,>100,>100,>25,< 10 nM,< 10 nM,>3,,,,"COc1cc(OC)c(F)c(N2Cc3cnc(-c4cncc(N5CCOCC5)c4)cc3C3(CC3)C2=O)c1F [Example 6, 2′-(2,6-difluoro-3,5-dimethoxyphenyl)-6′-(5-morpholinopyridin-3-yl)-1′H-spiro[cyclopropane-1,4′-[2,7]naphthyridin]-3′(2′H)-one]"
30 to 200 nM,30 to 200 nM,> 200 nM,> 200 nM,30 to 200 nM,30 to 200 nM,>50,>20,>10,>50,>25,>10,< 10 nM,< 10 nM,>3,,,,"COc1cc(OC)c(F)c(N2Cc3cnc(-c4cncc(C(=O)N5CCOCC5)c4)cc3C3(CC3)C2=O)c1F [Example 13, 2′-(2,6-difluoro-3,5-dimethoxyphenyl)-6′-(5-(morpholine-4-carbonyl)pyridin-3-yl)-1′H-spiro[cyclopropane-1,4′-[2,7]naphthyridin]-3′(2′H)-one]"
,< 10 nM,,,,< 10 nM,,,,,,,,10 to 30 nM,>5,>5,10 to 30 nM,,"CCN1C(=O)N(c2c(F)c(OC)cc(OC)c2F)Cc2cnc(-c3ccc(C(C)(C)C#N)nc3)cc21 [Example 26, 2-(5-(3-(2,6-difluoro-3,5-dimethoxyphenyl)-1-ethyl-2-oxo-1,2,3,4-tetrahydropyrido[4,3-d]pyrimidin-7-yl)pyridin-2-yl)-2-methylpropanenitrile]"
,30 to 200 nM,,,,30 to 200 nM,,,,>10,>10,>10,,< 10 nM,,,30 to 200 nM,,"COc1cc(OC)c(F)c(N2Cc3cnc(-c4[nH]ncc4C#N)cc3C3(CC3)C2=O)c1F [Example 171, 5-(2′-(2,6-difluoro-3,5-dimethoxyphenyl)-3′-oxo-2′,3′-dihydro-1′H-spiro[cyclopropane-1,4′-[2,7]naphthyridine]-6′-yl)-1H-pyrazole-4-carbonitrile]"
10 to 30 nM,,,,10 to 30 nM,,,,,,,,30 to 200 nM,,,,,30 to 200 nM,"COc1cc(OC)c(F)c(N2Cc3cnc(-c4ccc(C5(C#N)CCC5)nc4)cc3N(c3ccccn3)C2=O)c1F [Example 137, 1-(5-(3-(2,6-difluoro-3,5-dimethoxyphenyl)-2-oxo-1-(pyridin-2-yl)-1,2,3,4-tetrahydropyrido[4,3-d]pyrimidin-7-yl)pyridin-2-yl)cyclobutanecarbonitrile]"
,< 10 nM,,,,< 10 nM,,,,,,,,10 to 30 nM,>5,,10 to 30 nM,,"CNC(=O)c1ccc(-c2cc3c(cn2)CN(c2c(F)c(OC)cc(OC)c2F)C(=O)C32CC2)cn1 [Example 18, 5-(2′-(2,6-difluoro-3,5-dimethoxyphenyl)-3′-oxo-2′,3′-dihydro-1′H-spiro[cyclopropane-1,4′-[2,7]naphthyridine]-6′-yl)-N-methylpicolinamide]"
